Source: patent US11389382B2, “Biphase chemical peel” (L'OREAL, priority 2019, dated 2022)

Tests used:
forearm skin = assay: In vivo tape stripping, protein removed, Micro BCA assay (efficacy of desquamation); set-up: species or system human; details: tape stripping of forearm after 15 min treatment; 4 tape strippings per region, average of 3 regions, single person
Protocol: Example 5: In Vivo Tape Stripping Protein Removed Using a Micro […] Assay to Characterize the Efficacy of Desquamation
Studies were conducted with each of the exemplified inventive and comparative compositions, to evaluate effect of the compositions on live skin tape stripping samples. Inventive 1 and Inventive 2 compositions and the Comparative composition together with Jessner peel, glycolic acid alone and isopropyl myristate controls were evaluated according to the following procedure. Tape strips of skin areas tested with each composition were obtained, with 4 tape strippings per region; Average of 3 regions; Experiment done on single person rinse the forearm with distilled water and dry it for 3 minutes; Wipe with the peel test composition saturated cotton pads on the designated area and dry it for 15 min; Rinse the forearm with the water and dry the moisture by placing a tissue and patting the tissue. Air dry it for 3 min; Perform the tape stripping—(1) put the tape on, (2) place the metal plate on top of the tape, and (3) put weight (2 kg) for 5 seconds.—3 tapes (3 different regions of the skin)/peel test composition×4 tape stripping; Each tape (1.4 cm) was inserted in a 2 mL Eppendorf tube and 500 uL of PBS was added to each tube; Shaking condition ([…]) for 2 hours @ room temperature; Sonication for 20 min in ice water; Micro BCA assay.

stratum corneum samples = assay: In vitro stratum corneum comparison of ΔT using differential scanning calorimetry (lipid disorganization); details: DSC 20° C. to 120° C. at 5° C./min; 0.1 g/sample on SC surface for 15 min in 75% RH
Protocol: In Vitro Stratum Corneum Comparison of ΔT using differential scanning calorimetry (DSC) to characterize the stability of a protein or other biomolecule directly in its native form. It does this by measuring the heat change associated with the molecule's thermal denaturation when heated at a constant rate.
Studies were conducted with each of the exemplified inventive and comparative compositions, to evaluate effect of the compositions on the stratum corneum. Inventive 1 and Inventive 2 compositions and the Comparative composition together with Jessner peel, glycolic acid alone and isopropyl myristate controls were evaluated on SC samples according to the following procedure. Stratum corneum samples were equilibrated at 75% RH overnight. Inventive and Comparative Compositions and control treatments applied on SC surface (0.1 g/sample) for 15 min in 75% RH. The SC surface was wiped clean and rinsed with DI water. Allow to dry in 75% RH overnight. The DSC profile was measured from 20° C. to 120° C. at 5° C./min.

[1] = acute oral toxicity, mutagenicity, skin irritation, skin sensitization, phototoxicity; cited from earlier work

SMILES	Protein Content (protein removed) (forearm skin) [μg/cm^2]	ΔT (measurement of lipid disorganization) (stratum corneum samples)	adverse effects in basic toxicological tests [1]
O=C(O)CO [Glycolic Acid Control, glycolic acid]	1.65 ± 0.02	5.94 ± 0.41	–
CCCCCCCCCCCCCC(=O)OC(C)C [Isopropyl myristate control, isopropyl myristate]	2.4 ± 0.88	6.40 ± 0.1	–
CC(c1ccccc1)c1ccc(O)cc1O (centres unmarked) [Phenylethyl resorcinol]	–	–	not shown adverse effects
